What was measured:
recombinant cPLA2 = biological target: T1, recombinant cPLA2 (Homo sapiens, UniProt P47712); experiment: EnzChek phospholipase A2 fluorogenic assay (% activity) at 10 μM; format: biochemical; conditions: 10 μM compound
T1 construct: purchased US Biological P4074-03R
T1 sequence (P47712 1-749): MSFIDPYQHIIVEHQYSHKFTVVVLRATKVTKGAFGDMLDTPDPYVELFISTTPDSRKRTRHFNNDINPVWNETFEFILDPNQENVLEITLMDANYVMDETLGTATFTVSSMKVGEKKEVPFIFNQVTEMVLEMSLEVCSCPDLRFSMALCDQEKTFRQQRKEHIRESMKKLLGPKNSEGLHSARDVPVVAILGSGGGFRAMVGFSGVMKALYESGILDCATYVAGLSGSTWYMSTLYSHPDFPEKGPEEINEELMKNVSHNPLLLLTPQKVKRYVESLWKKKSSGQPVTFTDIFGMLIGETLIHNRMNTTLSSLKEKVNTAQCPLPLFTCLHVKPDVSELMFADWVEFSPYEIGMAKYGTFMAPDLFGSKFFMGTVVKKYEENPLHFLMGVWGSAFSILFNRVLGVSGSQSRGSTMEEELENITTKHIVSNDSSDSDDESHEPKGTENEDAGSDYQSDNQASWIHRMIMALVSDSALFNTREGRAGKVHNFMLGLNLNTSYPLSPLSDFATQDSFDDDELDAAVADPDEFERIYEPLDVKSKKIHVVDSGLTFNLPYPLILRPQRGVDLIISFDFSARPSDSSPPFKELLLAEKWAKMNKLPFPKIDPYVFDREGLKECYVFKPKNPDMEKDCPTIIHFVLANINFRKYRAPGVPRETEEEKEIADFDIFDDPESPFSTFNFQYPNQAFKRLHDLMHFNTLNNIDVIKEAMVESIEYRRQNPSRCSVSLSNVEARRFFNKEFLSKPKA
Description: The compounds were evaluated with a fluorogenic PLA2 assay kit (EnzChek® Phospholipase A2 Assay Kit, Catalog No: E10217) at a standard 10 μM concentration. Potential inhibitors were determined by their ability to lower cPLA2 activity to a greater extent than 1a.
The assay was conducted according to the manufacturer’s instruction (E10217, Molecular Probes) with slight modification. Briefly, substrate solution was separately prepared by mixing 5 μL of DOPG, 5 μL of DOPC and 5 μL of substrate respectively in 1.5 mL of 1X phospholipase A2 reaction buffer. The mixture was vortexed vigorously for 3 min before allowing to stand at room temperature for 1 h. 48 μL of 1X phospholipase A2 reaction buffer were added into each well of a 96-wells plate. This was followed by addition of 1 μL of recombinant cPLA2 (P4074-03R, US Biological) and 1 μL of 1 mM of the respective compound dissolved in DMSO. The final concentration of the test compound achieved is 10 μM. The reaction was initiated by adding 50 μL of the substrate solution and incubating at room temperature for 1 h. Fluorescence was measured using a Varioskan plate reader (Thermo Scientific, MA, USA) by exciting at 485 nm, while fluorescence emission was detected at 515 nm. Positive control was performed when 1 μL of test compound was replaced by vehicle DMSO. % activity was expressed as the mean value of duplicate wells from three experiments. % activity was calculated by the following formula1 %activity=fluorescenceoftestedwell−background/fluorescenceofpostivecontrol−background

[1] = system: ROS production in BV-2 cells; experiment: ROS assay (CM-H2DCFDA) in LPS-stimulated BV-2 cells; format: cell-based, murine; conditions: 2, 10 and 20 μM, 2 µg/mL LPS, 14 h
Description: CM-H2DCFDA was used as the main detection reagent for ROS for this study. Being a chloromethyl derivative of the conventional H2DCFDA, it is better retained in the cells due to the reaction of its chloromethyl group with intracellular thiol species. In addition, esterase present in the cells would convert the acetate group found in CM-H2DCFDA into carboxylic acid, further retaining it in the cell. To investigate the ROS production by BV-2 cell stimulated with LPS, intracellular ROS was measured 14 h post-stimulation with CM-H2DCFDA fluorescence. A 2-fold increase in ROS was detected as compared to the control. […] This could be because the activation of ROS production might not be solely due to the inflammatory pathway mechanism involving cPLA2. It was reported in previous studies that a multitude of several other processes producing ROS may be at work[51],[52].
20,000 BV-2 cells were seeded into a 96-well plate in 100 uL of culture medium and allowed to grow overnight. When a 90% cell confluency was observed, lipopolysaccharide pre-dissolved in culture medium to achieve a concentration of 2 μg/mL was added to each well of the 96 well. Different concentrations of test compounds in DMSO were added to the LPS containing medium and was then transferred to the cells. […] Fluorescence detection was done by exciting the dye at 485 nm and detection of emission at 525 nm. […]

[2] = Aqueous solubility (Multiscreen Solubility filter plates); format: physicochemical; conditions: aqueous buffer, kinetic from dmso stock; pH 7.4, 24 h, 25 °C
Description: Solubility determinations were carried out on Multiscreen® Solubility filter plates (Millipore-MSSLBPC10) from Millipore Corporation (MA, USA) following the protocol (PC2445EN00) from the manufacturer.

HEK293T cells = experiment: MTS cell proliferation assay on HEK293T cells; format: cell-based, human; conditions: 10 μM, 48 h and 72 h, vs vehicle control
Description: (§1) To explore whether the inhibitors are cytotoxic, MTS assay were conducted on BV-2 cells, a murine microglial cell line derived from post-natal mouse cerebella, and HEK293T cells that are derived from human embryonic kidney. Both cell types were treated with 10 μM of 1a, 2g and 2i for 48 h and 72 h (Fig. 3A,B). Dimethyl sulfoxide (DMSO) vehicle control was also included as the compounds were dissolved in DMSO.
(§2) Cells were plated on a 96-wells plate and grown for 24 h to a density of 8000 cells per well for both HEK293T and BV-2 cells. Cells were cultured at 37 °C under a 5% CO2 environment in 100 μL of culture medium. Thereafter, the compound of interest dissolved in culture medium at a concentration of 10 μM was replaced into each well. DMSO was added as vehicle in the control group. 3 biological replicates were performed. The plates were then incubated at 37 °C with 5% CO2 for 48 h and 72 h. At each individual time point, 20 μL of CellTiter 96® AQueous One Solution (MTS reagent) was added into each well and re-incubated at 37 °C with 5% CO2 without light for 3 h. Colorimetric readings were taken using a Varioskan plate reader at 490 nm and analyzed. Three independent biological repeats with four technical replicates were performed.

BV-2 cells = experiment: MTS cell proliferation assay on BV-2 cells; format: cell-based, murine; conditions: 10 μM, 48 h and 72 h, vs vehicle control
Description: as §1, §2

inhibition at 10 µM (recombinant cPLA2): 88.5%
remaining activity at 10 µM (recombinant cPLA2; 1 h, room temperature): 11.5 ± 1%
solubility at 24 h [2]: > 100 µM
SMILES: CCCCC/C=C\C/C=C\C/C=C\C/C=C\CCCCC(=O)Nc1cccc(C(=O)O)c1 [2i]
ROS level, concentration dependence [1]: dose-dependent decrease in ROS
cytotoxicity (MTS) on HEK293T cells (HEK293T cells): no significant toxic effects
cytotoxicity (MTS) on BV-2 cells (BV-2 cells): no significant toxic effects

Reference: paper PMC5651845, “A New Generation of Arachidonic Acid Analogues as Potential Neurological Agent Targeting Cytosolic Phospholipase A2” (Scientific Reports, 2017)
